Results reported in patent US20250162989A1, “USP30 INHIBITORS AND USES THEREOF” (Vincere Biosciences, Inc., priority 2021, published 2025).

Biological target: recombinant USP30 (amino acids 57-517 of the human sequence) (Homo sapiens (Human), UniProt Q70CQ3)
Assay: In vitro USP30 biochemical assay (Ubiquitin-Rhodamine substrate)
Conditions: 1.5 nM recombinant USP30, 25 nM Ubiquitin-Rhodamine, fluorescence
Description: In vitro biochemical assay to establish the potency of compounds for USP30 inhibition: a 384-well plate assay using a fluorophore tagged substrate of USP30 was used for in vitro screening of compounds. Each compound was tested at
10 different concentrations (0.5 to 10,000 nM) in duplicate wells. […] Data were analyzed using Graph Pad Prism software with a four-parameter (floating slope) fit to log concentration data to determine IC50s.

Sequence of recombinant USP30 (amino acids 57-517 of the human sequence) (Q70CQ3 57-517): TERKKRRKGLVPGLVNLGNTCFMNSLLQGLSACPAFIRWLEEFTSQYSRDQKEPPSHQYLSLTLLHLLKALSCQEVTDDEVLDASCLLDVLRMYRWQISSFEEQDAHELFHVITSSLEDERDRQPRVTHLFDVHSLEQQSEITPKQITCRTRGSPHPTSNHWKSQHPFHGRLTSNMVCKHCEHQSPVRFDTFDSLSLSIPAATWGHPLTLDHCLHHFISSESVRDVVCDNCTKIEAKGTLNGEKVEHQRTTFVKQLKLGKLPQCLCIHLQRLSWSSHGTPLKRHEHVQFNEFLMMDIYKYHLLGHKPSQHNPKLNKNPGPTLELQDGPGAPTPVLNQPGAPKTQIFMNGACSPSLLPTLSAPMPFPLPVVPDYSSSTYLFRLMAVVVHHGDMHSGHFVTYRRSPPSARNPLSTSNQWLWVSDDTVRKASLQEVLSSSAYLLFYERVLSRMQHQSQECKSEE

Row | Structure (SMILES) | IC50 [µM]
1 | CC(C)(C)NS(=O)(=O)c1ccc(NC(=O)[C@H](Cc2ccccc2)NC(=O)c2ccc3nc[nH]c3c2)cc1 [Compound I-194] | 1 to 10
2 | O=C(Nc1ccc(S(=O)(=O)NC2COC2)cc1)[C@@H]1C[C@@H](c2ccccc2)CN1C(=O)c1ccc(F)cc1 [Compound I-263] | 1 to 10
3 | CC(C)(C)NS(=O)(=O)c1ccc(NC(=O)[C@H](Cc2ccccc2)NC(=O)c2ccc3cn[nH]c3c2)cc1 [Compound I-190] | 1 to 10
4 | CC(C)(C)NS(=O)(=O)c1ccc(NC(=O)[C@H](Cc2ccccc2)NC(=O)C2CCNCC2)cc1 [Compound I-192] | 1 to 10
5 | CN(C)CC[C@H](NC(=O)c1ccc(F)cc1)C(=O)Nc1ccc(S(=O)(=O)NC(C)(C)C)cc1 [Compound I-240] | 0.05 to 1
6 | COc1cc(NC(=O)[C@H](CC(C)C)NC(=O)c2ccc(F)cc2)ccc1S(=O)(=O)NC(C)(C)C [Compound I-13] | 0.05 to 1
7 | O=C(Nc1ccc(S(=O)(=O)NC2COC2)nc1)[C@@H]1C[C@@H](c2ccccc2)CN1C(=O)c1ccc(F)cc1 [Compound I-271] | 1 to 10
8 | COc1cc(NC(=O)[C@H](Cc2ccccc2)NC(=O)c2ccc(F)cc2)c(Cl)cc1S(=O)(=O)NC(C)(CO)CO [Compound I-142] | 1 to 10
9 | O=C(N[C@@H](CC1CCOCC1)C(=O)Nc1ccc(S(=O)(=O)NC2COC2)nc1)c1ccc(F)cc1 [Compound I-5] | 0.05 to 1
10 | CC(C)(C)NS(=O)(=O)c1ccc(NC(=O)[C@H](CC2CCNCC2)NC(=O)c2ccc(F)cc2)cc1 [Compound I-40, (S)—N-(1-((4-(N-(tert-butyl)sulfamoyl)phenyl)amino)-1-oxo-3-(piperidin-4-yl)propan-2-yl)-4-fluorobenzamide] | 0.05 to 1
11 | COc1cc(NC(=O)[C@H](CC2CCN(C)CC2)NC(=O)c2ccc(F)cc2)cnc1S(=O)(=O)NC(C)(C)CO [Compound I-100] | 1 to 10
12 | COc1cc(NC(=O)[C@@H]2C[C@@H](C3CCCCC3)CN2C(=O)c2ccc(F)cc2)cnc1S(=O)(=O)NC(C)(C)C [Compound I-255] | 1 to 10
13 | CC(C)C[C@H](NC(=O)c1ccc(F)cc1)C(=O)Nc1ccc(S(=O)(=O)NC(C)(C)C(F)(F)F)nc1 [Compound I-203] | 0.05 to 1
14 | COCC[C@H](NC(=O)c1ccc(F)cc1)C(=O)Nc1ccc(S(=O)(=O)NC(C)(C)CN2CCOCC2)cc1 [Compound I-27] | 1 to 10
15 | CC(C)C[C@H](NC(=O)c1ccc(F)cc1)C(=O)Nc1ccc(S(=O)(=O)NC(C)(C)C(F)(F)F)cc1 [Compound I-221] | 0.05 to 1
16 | CC(C)(C)NS(=O)(=O)c1ccc(NC(=O)[C@H](Cc2ccccc2)NC(=O)C2CCN(C#N)CC2)cc1 [Compound I-233] | 0.05 to 1
17 | CN1CCN(C(=O)N[C@@H](Cc2ccccc2)C(=O)Nc2ccc(S(=O)(=O)NC(C)(C)C)cc2)CC1 [Compound I-180] | 1 to 10
18 | CC(C)CC[C@H](NC(=O)c1ccc(F)cc1)C(=O)Nc1ccc(S(=O)(=O)NC2COC2)cc1 [Compound I-24] | 0.05 to 1
19 | CC(C)(C)NS(=O)(=O)c1ccc(-c2nc([C@H](Cc3ccccc3)NC(=O)c3ccc(F)cc3)n[nH]2)cc1 (stereo in doubt) [Compound I-55, N-(1-(5-(4-(N-(tert-butyl)sulfamoyl)phenyl)-1H-1,2,4-triazol-3-yl)-2-phenylethyl)-4-fluorobenzamide] | 1 to 10
20 | CC(C)C[C@H](NC(=O)c1ccc(F)cc1)C(=O)Nc1ccc(S(=O)(=O)NC2COC2)cc1 [Compound I-22] | 0.05 to 1
21 | CO[C@@H]1C[C@@H](C(=O)Nc2ccc(S(=O)(=O)N[C@@H]3CCOC3)cc2)N(C(=O)c2ccc(F)cc2)C1 [Compound I-277] | 0.05 to 1

Same assay, conditions: […] recombinant USP30, 25 nM Ubiquitin-Rhodamine, fluorescence

Row | Structure (SMILES) | IC50 [µM]
22 | CN1CC[C@@H](NC(=O)[C@H](Cc2ccccc2)NC(=O)c2ccc(F)cc2)C1 [Compound I-152] | > 10
23 | O=C(N[C@@H](Cc1ccccc1)C(=O)NC1CCN(C(=O)OCc2ccccc2)CC1)c1ccc(F)cc1 [Compound I-113] | > 10
